Reference: patent US20190290474A1, “DRUG RELEASE DEVICE AND USE” (JUROX PTY LTD, priority 2016, published 2019)

Tests used:
[1] = aqueous pH 7 buffer; cited from earlier work
[2] = Example 13: progesterone dissolution from cut devices in 250 mL acetone, HPLC/UV; assay type: physicochemical; conditions: individual device
Description: The combined mass of each reagent bottle and solid contents was recorded (Mi) and each bottle was then charged with 250 mL of acetone. Reagent bottles were heated to 35° C. in a temperature controlled water bath and stirred using a submersible multipoint stirrer plate.
Reagent bottles were removed from the water bath at times 2, 4.5 and 47.5 hours after the commencement of stirring. All residual water from the temperature controlled water bath was removed from the outside of the container. The total mass of the dissolution vessel, drug product and drug product solution was then recorded (Mf) and the reagent bottles were left at ambient temperature. The initial mass (of components prior to solvent addition) was subtracted from the final mass to give the solvent mass at each time point.
The temperature of each solution of device extracts was recorded at 2.5, 5 and 48 hours after stirring commenced and a 2 mL aliquot of solution was sampled immediately following the temperature reading. The aliquot of extracts were diluted in 100 mL of 50:50 acetonitrile/water and a sample of the diluted solution was filtered into HPLC vials
The mass of solvent was converted to its corresponding volume using the literature density of acetone and equation below.
A progesterone dissolution profile and final content for each implant was be obtained using a HPLC/UV method for progesterone quantification in IVD and CIDR

- Dissolution of progesterone, percentage of the dose concentration (1.38 g) ([2]; 2.5 Hours): 100.8%
- Dissolution of progesterone, percentage of the dose concentration (1.38 g) ([2]; 5 Hours): 104.1%
- Dissolution of progesterone, percentage of the dose concentration (1.38 g) ([2]; 48 Hours): 103.2%
SMILES: CC(=O)[C@H]1CC[C@H]2[C@@H]3CCC4=CC(=O)CC[C@]4(C)[C@H]3CC[C@]12C [Progesterone]
- solubility of progesterone [1]: < 100 µg/mL
